Values joined by “and” are separate entries in the source; they are usually repeats but may differ in a detail not shown here. Equal entries are not always repeated. Marks after values point to notes of the source that are not given here.
system: 5α-reductase; assay: Fatty acid esters on 5α-reductase activity, conversion of testosterone to 5α-dihydrotestosterone in normal human dermal fibroblast cultures (Example 4); assay type: cell-based; set-up: key to group by 5α-reductase inhibitory activity: group A with the highest inhibitory activity; group B with an intermediate inhibitory activity; conditions: 1 μg/ml
Method: The fibroblast culture medium (FCM) consisted of MEM/M199 (3:1, v/v) supplemented with penicillin (50 IU/ml), streptomycin (50 μg/ml), sodium bicarbonate (0.2%, w/v) and FCS (10%, v/v).
The assay system consisted of normal human dermal fibroblasts cultured as a monolayer. The fibroblasts were isolated from a residue from abdominal plastic surgery performed on a person (subject BIOPREDIC No. I0013). The cells were used at the fifth passage; they were cultured until the monolayers were confluent in FCM medium at 37° C. in a humid atmosphere containing 5% CO2.
The fibroblast incubation medium (FIM) consisted of FCM supplemented with tritiated testosterone (1.6×10^−7 M, that is 6.32 μCi/ml) and nonradiolabeled testosterone (3.84×10^−6 M)
The test products and finasteride were taken up in DMSO before being diluted in the incubation medium. […]
The fibroblast cultures were preincubated in the presence of the test products or of the reference product for 2 hours before adding the substrate, testosterone. For this step, the test products and the reference product were prepared in the FCM medium.
After preincubation, the fibroblast cultures were incubated in the presence of the test products or of the reference product prepared in the FIM medium for 22 hours at 37° C. in a humid atmosphere containing 5% CO2. Control cultures were incubated in the FIM medium in the absence of test products and of reference product. […]
Each experimental condition was tested in triplicate.
After the incubation period, the cells were subjected to the action of ultrasound in the FIM medium. The cellular lysates thus obtained were extracted with dichloromethane. After evaporation, the dry residues were taken up in methanol and were deposited on 60F254 silica plates (MERCK, reference 5554).
The migration solvent was a mixture of dichloromethane and ether (7:3, v/v) At the end of the migration, the silica plates were read using a BERTHOLD radioactivity scanner.
The metabolizing of testosterone to 5α-dihydro-testosterone under the various experimental conditions was calculated: the results (areas of the 5α-dihydrotestosterone peaks counted by the BERTHOLD scanner) were expressed in pmol of 5α-dihydro-testosterone formed per culture well. They were also expressed as a percentage of the 5α-reductase activity present in the “DMSO control” group.
The groups of data (control group and treated groups) were treated by a one-way analysis of variance (ANOVA 1, p<0.05), followed by a DUNNETT's test (p<0.05). The effect of the test products and of the reference product was compared with the “DMSO control” group. The effects of the test products were compared to each other by a two-way analysis of variance (ANOVA 2, p<0.05, factor 1=concentration and factor 2=treatment).
The same materials and methods are used as in example 3 above.
It was proposed to evaluate the effect of fatty acid esters on the 5α-reductase activity. An in vitro model of normal human dermal fibroblast cultures was selected. The products tested were chosen from the group of fatty acid esters varying in the length and the functionality of the fatty chain, and the nature of the alkoxy group. These esters are the following: methyl oleate, methyl linoleate, methyl stearate, methyl laurate, methyl undecylenate, butyl oleate, oleyl oleate and methyl ricinoleate.

SMILES | 5α-reductase activity as percentage of the “DMSO 0.1% (v/v)” group
CCCCCCCCCCCC(=O)OC [Methyl laurate, methyl laurate] | 57 percentage of the “DMSO 0.1% (v/v)” group
CCCCCCCC/C=C\CCCCCCCC(=O)OCCCC [Butyl oleate, butyl oleate] | 79 percentage of the “DMSO 0.1% (v/v)” group
C=CCCCCCCCCC(=O)OC [Methyl undecylenate, methyl undecylenate] | 60 percentage of the “DMSO 0.1% (v/v)” group

same assay, conditions: 1 μg/ml, Example 4, p<0.05

SMILES | inhibition of the 5α-reductase activity [%]
CCCCCCCC/C=C\CCCCCCCC(=O)OCCCC [Butyl oleate, butyl oleate] | 21
C=CCCCCCCCCC(=O)OC [Methyl undecylenate, methyl undecylenate] | 40

same assay, conditions: 1 μg/ml, after 24 of incubation, DMSO 0.1% (v/v), mean

SMILES | 5α-DHT formed per culture well, mean
CCCCCCCCCCCC(=O)OC [Methyl laurate, methyl laurate] | 6.49* +/− pmol of 5α-DHT formed/culture well
CCCCCCCC/C=C\CCCCCCCC(=O)OCCCC [Butyl oleate, butyl oleate] | 9.00* +/− pmol of 5α-DHT formed/culture well
C=CCCCCCCCCC(=O)OC [Methyl undecylenate, methyl undecylenate] | 6.89* +/− pmol of 5α-DHT formed/culture well

same assay, conditions: 1 μg/ml, after 24 of incubation, DMSO 0.1% (v/v), single replicate

SMILES | 5α-DHT formed per culture well, single well
CCCCCCCCCCCC(=O)OC [Methyl laurate, methyl laurate] | 5.76 pmol of 5α-DHT formed/culture well and 6.88 pmol of 5α-DHT formed/culture well and 6.84 pmol of 5α-DHT formed/culture well
CCCCCCCC/C=C\CCCCCCCC(=O)OCCCC [Butyl oleate, butyl oleate] | 10.64 pmol of 5α-DHT formed/culture well and 8.28 pmol of 5α-DHT formed/culture well and 8.08 pmol of 5α-DHT formed/culture well
C=CCCCCCCCCC(=O)OC [Methyl undecylenate, methyl undecylenate] | 6.56 pmol of 5α-DHT formed/culture well and 7.44 pmol of 5α-DHT formed/culture well and 6.68 pmol of 5α-DHT formed/culture well

same assay, conditions: 10 μg/ml

SMILES | 5α-reductase activity as percentage of the “DMSO 0.1% (v/v)” group
CCCCCCCCCCCC(=O)OC [Methyl laurate, methyl laurate] | 77 percentage of the “DMSO 0.1% (v/v)” group
CCCCCCCC/C=C\CCCCCCCC(=O)OCCCC [Butyl oleate, butyl oleate] | 55 percentage of the “DMSO 0.1% (v/v)” group
C=CCCCCCCCCC(=O)OC [Methyl undecylenate, methyl undecylenate] | 68 percentage of the “DMSO 0.1% (v/v)” group

same assay, conditions: 10 μg/ml, Example 4, p<0.05

SMILES | inhibition of the 5α-reductase activity [%]
CCCCCCCC/C=C\CCCCCCCC(=O)OCCCC [Butyl oleate, butyl oleate] | 45
C=CCCCCCCCCC(=O)OC [Methyl undecylenate, methyl undecylenate] | 32

same assay, conditions: 10 μg/ml, after 24 of incubation, DMSO 0.1% (v/v), mean

SMILES | 5α-DHT formed per culture well, mean
CCCCCCCCCCCC(=O)OC [Methyl laurate, methyl laurate] | 8.75 pmol of 5α-DHT formed/culture well
CCCCCCCC/C=C\CCCCCCCC(=O)OCCCC [Butyl oleate, butyl oleate] | 6.21* +/− pmol of 5α-DHT formed/culture well
C=CCCCCCCCCC(=O)OC [Methyl undecylenate, methyl undecylenate] | 7.71* +/− pmol of 5α-DHT formed/culture well

same assay, conditions: 10 μg/ml, after 24 of incubation, DMSO 0.1% (v/v), single replicate

SMILES | 5α-DHT formed per culture well, single well
CCCCCCCCCCCC(=O)OC [Methyl laurate, methyl laurate] | 6.84 pmol of 5α-DHT formed/culture well and 9.88 pmol of 5α-DHT formed/culture well and 9.52 pmol of 5α-DHT formed/culture well
CCCCCCCC/C=C\CCCCCCCC(=O)OCCCC [Butyl oleate, butyl oleate] | 6.24 pmol of 5α-DHT formed/culture well and 5.04 pmol of 5α-DHT formed/culture well and 7.36 pmol of 5α-DHT formed/culture well
C=CCCCCCCCCC(=O)OC [Methyl undecylenate, methyl undecylenate] | 7.68 pmol of 5α-DHT formed/culture well and 7.84 pmol of 5α-DHT formed/culture well and 7.60 pmol of 5α-DHT formed/culture well

same assay, conditions: 100 μg/ml

SMILES | 5α-reductase activity as percentage of the “DMSO 0.1% (v/v)” group
CCCCCCCCCCCC(=O)OC [Methyl laurate, methyl laurate] | 86 percentage of the “DMSO 0.1% (v/v)” group
CCCCCCCC/C=C\CCCCCCCC(=O)OCCCC [Butyl oleate, butyl oleate] | 51 percentage of the “DMSO 0.1% (v/v)” group
C=CCCCCCCCCC(=O)OC [Methyl undecylenate, methyl undecylenate] | 74 percentage of the “DMSO 0.1% (v/v)” group

same assay, conditions: 100 μg/ml, Example 4, p<0.05

SMILES | inhibition of the 5α-reductase activity [%]
CCCCCCCC/C=C\CCCCCCCC(=O)OCCCC [Butyl oleate, butyl oleate] | 49
C=CCCCCCCCCC(=O)OC [Methyl undecylenate, methyl undecylenate] | 26

same assay, conditions: 100 μg/ml, after 24 of incubation, DMSO 0.1% (v/v), mean

SMILES | 5α-DHT formed per culture well, mean
CCCCCCCCCCCC(=O)OC [Methyl laurate, methyl laurate] | 9.80 pmol of 5α-DHT formed/culture well
CCCCCCCC/C=C\CCCCCCCC(=O)OCCCC [Butyl oleate, butyl oleate] | 5.77* +/− pmol of 5α-DHT formed/culture well
C=CCCCCCCCCC(=O)OC [Methyl undecylenate, methyl undecylenate] | 8.48* +/− pmol of 5α-DHT formed/culture well

same assay, conditions: 100 μg/ml, after 24 of incubation, DMSO 0.1% (v/v), single replicate

SMILES | 5α-DHT formed per culture well, single well
CCCCCCCCCCCC(=O)OC [Methyl laurate, methyl laurate] | 8.48 pmol of 5α-DHT formed/culture well and 11.96 pmol of 5α-DHT formed/culture well and 8.96 pmol of 5α-DHT formed/culture well
CCCCCCCC/C=C\CCCCCCCC(=O)OCCCC [Butyl oleate, butyl oleate] | 5.20 pmol of 5α-DHT formed/culture well and 6.72 pmol of 5α-DHT formed/culture well and 5.40 pmol of 5α-DHT formed/culture well
C=CCCCCCCCCC(=O)OC [Methyl undecylenate, methyl undecylenate] | 8.68 pmol of 5α-DHT formed/culture well and 7.76 pmol of 5α-DHT formed/culture well and 9.00 pmol of 5α-DHT formed/culture well

same assay, conditions: tested at 1, 10 and 100 μg/ml

SMILES | group by 5α-reductase inhibitory activity
CCCCCCCCCCCC(=O)OC [Methyl laurate, methyl laurate] | B
CCCCCCCC/C=C\CCCCCCCC(=O)OCCCC [Butyl oleate, butyl oleate] | A
C=CCCCCCCCCC(=O)OC [Methyl undecylenate, methyl undecylenate] | B
